The subject of assay [1] is rat models of hypertension. Particulars: cited from earlier work.
Assay [2] concerns congestive heart failure in Dahl salt-sensitive rats. Particulars: rat, in vivo; cited from earlier work.
For the next assay, the system named is neointimal formation. Particulars: rats, balloon injury model; cited from earlier work.
Another assay deals with rat stroke model. Particulars: in vivo; cited from earlier work.
The test system of assay [3] is IL-1 beta-induced coronary stenosis. The settings on record: long term treatment; cited from earlier work.
The target of the next assay is ROCK2 (Homo sapiens (Human), UniProt O75116). Nature of the assay: ROCK assay (Caliper LABCHIP peptide phosphorylation, 5 μM ATP). It is filed as biochemical. The settings on record: 1.5 μM peptide substrate.
Sequence of ROCK2 (O75116 whole entry, species assumed): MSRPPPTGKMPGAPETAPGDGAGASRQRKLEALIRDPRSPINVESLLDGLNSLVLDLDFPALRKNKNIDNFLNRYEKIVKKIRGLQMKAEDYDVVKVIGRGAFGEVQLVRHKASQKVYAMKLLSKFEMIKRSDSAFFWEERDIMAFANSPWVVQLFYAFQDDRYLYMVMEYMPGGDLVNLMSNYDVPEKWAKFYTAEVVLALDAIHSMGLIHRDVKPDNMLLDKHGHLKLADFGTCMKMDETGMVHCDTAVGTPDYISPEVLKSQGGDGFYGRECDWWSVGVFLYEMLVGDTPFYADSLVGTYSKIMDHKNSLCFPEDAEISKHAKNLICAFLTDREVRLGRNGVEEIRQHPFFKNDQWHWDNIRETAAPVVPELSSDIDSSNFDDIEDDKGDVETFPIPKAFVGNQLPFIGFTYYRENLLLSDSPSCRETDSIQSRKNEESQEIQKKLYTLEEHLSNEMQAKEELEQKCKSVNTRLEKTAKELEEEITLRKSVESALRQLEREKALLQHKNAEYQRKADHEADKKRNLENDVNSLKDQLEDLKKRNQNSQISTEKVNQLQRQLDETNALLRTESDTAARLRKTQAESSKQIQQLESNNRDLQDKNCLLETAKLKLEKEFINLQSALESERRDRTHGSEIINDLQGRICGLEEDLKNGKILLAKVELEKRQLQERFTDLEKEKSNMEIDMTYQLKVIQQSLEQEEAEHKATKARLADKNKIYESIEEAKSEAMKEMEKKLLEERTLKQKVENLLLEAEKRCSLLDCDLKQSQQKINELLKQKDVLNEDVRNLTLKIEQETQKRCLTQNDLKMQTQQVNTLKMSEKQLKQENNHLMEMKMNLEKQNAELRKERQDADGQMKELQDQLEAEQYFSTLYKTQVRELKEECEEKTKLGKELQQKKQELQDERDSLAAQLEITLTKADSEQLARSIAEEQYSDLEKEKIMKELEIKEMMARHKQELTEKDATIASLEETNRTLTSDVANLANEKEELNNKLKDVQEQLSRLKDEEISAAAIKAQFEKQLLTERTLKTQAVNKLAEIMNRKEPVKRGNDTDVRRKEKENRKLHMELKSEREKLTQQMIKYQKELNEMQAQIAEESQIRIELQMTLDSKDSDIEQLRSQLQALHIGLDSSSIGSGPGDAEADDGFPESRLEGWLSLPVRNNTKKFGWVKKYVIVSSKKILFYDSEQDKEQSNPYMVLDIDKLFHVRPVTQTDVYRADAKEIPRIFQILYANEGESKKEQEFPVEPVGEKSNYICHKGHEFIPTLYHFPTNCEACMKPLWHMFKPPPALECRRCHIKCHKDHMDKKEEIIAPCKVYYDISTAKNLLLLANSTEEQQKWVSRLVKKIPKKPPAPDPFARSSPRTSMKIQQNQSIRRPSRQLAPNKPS

Take `C[C@@H](N)[C@H]1CC[C@H](C(=O)Nc2ccncc2)CC1` [Example Y-27632, Y-27632]: the “blood pressure in control rats” value in assay [1] (control rats) is listed as “only a minor effect on blood pressure”. In addition, the blood pressure result in assay [1] (spontaneously hypertensive rat, renal hypertensive rat and deoxycortisone acetate salt hypertensive rat models) is given as “significantly decrease blood pressure”. In addition, the “ventricular hypertrophy, fibrosis and function” value in assay [2] was “improve ventricular hypertrophy, fibrosis and function”. For the same molecule, in the assay on neointimal formation, the neointimal formation entry is reported as “inhibited neointimal formation”. With `O=S(=O)(c1cccc2cnccc12)N1CCCNCC1` [fasudil], in the assay with rat stroke model, the “infarct size and neurologic deficit” value was “reduce both the infarct size and neurologic deficit”. In addition, in assay [3], the coronary constrictive remodeling entry is given as “promote a regression of coronary constrictive remodeling” and the coronary stenosis entry is “progressively reduce coronary stenosis”. Usually IC50 stands for the midpoint of a concentration-inhibition curve. A lower IC50 goes with greater potency in that assay. For the molecule `N#Cc1ccc(C(=O)Nc2ccc3c(c2)OCc2cnccc2-3)cc1` [Example I-54, N-(5H-chromeno[3,4-c]pyridin-8-yl)-4-cyanobenzamide], at ROCK2, the IC50 came out at 2.56 µM. The same measure, in the same setting: with `COc1ccc(C(=O)Nc2ccc3c(c2)OCc2cnccc2-3)cc1` [Example I-55, N-(5H-chromeno[3,4-c]pyridin-8-yl)-4-methoxybenzamide] the figure was 3.25 µM.

`O=C(NCC(c1ccccc1)c1ccccc1)Nc1ccc2c(c1)OCc1cnccc1-2` [II-8, 1-(5H-chromeno[3,4-c]pyridin-8-yl)-3-(2,2-diphenylethyl)urea] returned an IC50 against ROCK2 of 0.91 µM. On the same count and under the same terms, with `O=C(Nc1ccc2c(c1)OCc1cnccc1-2)C(O)c1ccccc1` (stereo not drawn) [Example I-46, N-(5H-chromeno[3,4-c]pyridin-8-yl)-2-hydroxy-2-phenylacetamide] the figure was 0.0512 µM; with `O=C(Nc1ccc2c(c1)OCc1cnccc1-2)c1ccc2ccccc2c1` [Example I-61, N-(5H-chromeno[3,4-c]pyridin-8-yl)-2-naphthamide], 4.72 µM.

For the molecule `O=C(Cc1cnccn1)Nc1ccc2c(c1)OCc1cnccc1-2` [Example I-49, N-(5H-chromeno[3,4-c]pyridin-8-yl)-2-(pyrazin-2-yl) acetamide], on ROCK2, half-maximal inhibition (IC50) required 1.25 µM. Still for that read-out and setting: in the case of `O=C(Nc1ccc2c(c1)OCc1cnccc1-2)c1cccc(F)c1` [Example I-52, N-(5H-chromeno[3,4-c]pyridin-8-yl)-3-fluorobenzamide] it was 3.56 µM; in that of `O=C(CCn1ccnc1)Nc1ccc2c(c1)OCc1cnccc1-2` [Example I-48, N-(5H-chromeno[3,4-c]pyridin-8-yl)-3-(1H-imidazol-1-yl) propanamide], 0.992 µM; in that of `O=C(Cc1ccc(C(F)(F)F)cc1)Nc1ccc2c(c1)OCc1cnccc1-2` [Example I-69, N-(5H-chromeno[3,4-c]pyridin-8-yl)-2-(4-(trifluoromethyl)phenyl)acetamide], 1.08 µM. For the molecule `O=C(Cc1cccnc1)Nc1ccc2c(c1)OCc1cnccc1-2` [Example I-42, N-(5H-chromeno[3,4-c]pyridin-8-yl)-2-(pyridin-3-yl) acetamide], half-maximal inhibition against ROCK2 (IC50) was put at 0.287 µM. Same read-out and setting: in the case of `Cc1cc(F)ccc1CC(=O)Nc1ccc2c(c1)OCc1cnccc1-2` [Example I-24, N-(5H-chromeno[3,4-c]pyridin-8-yl)-2-(4-fluoro-2-methylphenyl) acetamide] it was 0.0111 µM; in that of `O=C(Cc1ccc(Cl)cc1)Nc1ccc2c(c1)OCc1cnccc1-2` [Example I-13, 2-(4-chlorophenyl)-N-(5H-chromeno [3,4-c]pyridin-8-yl) acetamide], 0.134 µM. Molecule `O=C(Nc1ccc2c(c1)OCc1cnccc1-2)c1ccccc1` [Example I-50, N-(5H-chromeno[3,4-c]pyridin-8-yl)benzamide] registered a half-inhibitory concentration (IC50) against ROCK2 of 4.81 µM. For the molecule `O=C(NCCc1ccccc1)Nc1ccc2c(c1)OCc1cnccc1-2` [II-3, 1-(5H-chromeno[3,4-c]pyridin-8-yl)-3-phenethylurea], on ROCK2, it took 0.189 µM to reach half-maximal inhibition (IC50). At ROCK2, `O=C(Cc1ccccc1)Nc1ccc2c(c1)[nH]c1cnccc12` [Example IV-4, 2-Phenyl-N-(9H-pyrido[3,4-b]indol-7-yl)acetamide] displayed an IC50 of 0.0095 µM. Same read-out and setting: in the case of `O=C(Nc1ccc2c(c1)OCc1cnccc1-2)c1ccccc1Cl` [Example I-51, 2-chloro-N-(5H-chromeno[3,4-c]pyridin-8-yl)benzamide] it was 1.15 µM. Same read-out and setting: in the case of `O=C(Nc1cccc(Cl)c1)Nc1ccc2c(c1)OCc1cnccc1-2` [II-4, 1-(3-chlorophenyl)-3-(5H-chromeno[3,4-c]pyridin-8-yl) urea] it was 2.37 µM.

Source of the values: patent US9663529B2, “Tricyclic pyrido-carboxamide derivatives as rock inhibitors” (BRISTOL-MYERS SQUIBB COMPANY, priority 2013, dated 2017).
